US7078389B2, “Chemically modified oligonucleotide for site-directed mutagenesis” (priority 1993, dated 2006)
“And” between values parts separate entries of the source, which are not always exact repeats. Identical values can stand only once.

Tests used:
[1] = tested on: supF gene within the pSP189 SV40 vector; assay: SV40 mutagenesis: vector DNA passaged in COS-7 cells; format: cell-based, monkey
Description: FIG. 3 is a schematic representation of the strategy for targeted mutagenesis of SV40 DNA. The 10 base triplex-forming oligonucleotide, psoralen-AG10 (4′hydroxymethyl-4,5′,8-trimethylpsoralen-5′[…]3′) (SEQ ID NO:1), is shown directly above its targeted sequence in the supF gene (base pairs 167–176), contained within the SV40 vector, pSP189. Psoralen-AG10 is incubated with the SV40 vector DNA to allow site-specific triplex formation. Photoactivation of the psoralen by irradiation with long wave ultraviolet light (320–400 nm) is designed to generate an adduct at the targeted base pair (167), as indicated by the arrow. The oligo-plasmid complex is then transfected into monkey COS-7 cells and allowed to replicate for 48 hours. Following purification of the vector DNA by the Hirt lysate procedure (Hirt et al., J. Mol. Biol. 26:365–369 (1967)), the DNA is used to transform E. coli SY204 lacZ125 (Am).
SV40 mutagenesis. The SV40 vector DNA (pSP189) at 80 nM was incubated with psoralen-AG10 or psoralen-GA10 (ranging from 2 to 1000-fold molar excess) and irradiated as described above. The oligonucleotide-plasmid complex was then transfected into monkey COS-7 cells (ATCC #1651-CRL) using cationic liposomes (DOTAP, Boehringer Manheim, Indianapolis, Ind.) at a final concentration of 5 μg/ml in the culture dish. The DNA/oligo/liposome mixture was added dropwise to the cell culture dish with swirling. The following day, the media containing the liposome mixture was replaced by fresh media. Following 48 hours to allow repair and replication, SV40 vector DNA was harvested from the COS cells by the Hirt lysate procedure. Genetic analysis of the supF genes in the SV40 vector was carried out by transformation of E. coli SY204 [lacZ125(Am)] to ampicillin resistance by electroporation using 12–150 ng of Dpn I digested Hirt lysate DNA and a Bio-Rad Gene Pulser apparatus equipped with a Pulse Controller (Bio-Rad, Richmond, Calif.). Mutants were identified by growth in the presence of 65 μg/ml IPTG and 80 μg/ml X-Gal, as described by (Glazer et al., Mol. Cell Biol. 7:218–224 (1987)). These transformants were counted and the mutants (white colonies) were streaked for single colonies.
In this vector system, the SV40 DNA, after appropriate treatment, is introduced into monkey COS cells where repair and replication can occur, producing mutations indicative of mammalian processing of DNA damage. The small, circular vector DNA is recovered from the cells by biochemical separation from the chromosomal DNA (Hirt lysate, Hirt et al., J. Mol. Biol. 26:365–369 (1967)), and it is used to transform E. coli carrying the lacZ (amber) mutation to allow analysis of supF gene function by scoring colonies for β-galactosidase activity (produced via suppression of the amber mutation in lacZ) in the presence of the chromogenic substrate, X-gal. Vectors with wild type supF genes yield blue colonies; those with mutations in supF produce white ones. In order to eliminate misleading data that might arise from viral DNA that was not replicated or repaired in the mammalian cells, the viral DNA is digested before bacterial transformation with the enzyme Dpn I which will restrict DNA that has not been methylated by the mammalian pattern at its recognition site.
The design of the initial experiments to target mutations to SV40 DNA is illustrated in FIG. 3. A 10 base pair region of the supF gene (bp 167–176) was identified as a site amenable to triplex formation because of the homopurine/homopyrimidine run there. Since this run was G-rich, the purine motif for triplex formation was selected (Beal and Dervan, Science 251:1360–1363 (1991)), and an oligonucleotide, 5′[…]3′ (SEQ ID NO:2) (AG10) was synthesized based on this motif. A psoralen derivative, 4′-hydroxymethyl-4,5′,8-trimethylpsoralen, was attached to the oligonucleotide by a phosphodiester linkage at the 5′ adenine via a two carbon linker arm, with the goal of directing mutations to base pair 167.

duplex supF DNA = assay: UVA-induced covalent bond formation to duplex supF DNA; format: binding, E. coli; settings: following UVA irradiation
250 bp supF PCR fragment = assay: Hinf I restriction enzyme protection assay, PCR amplified supF target; format: binding, E. coli; settings: 100-fold molar excess of oligonucleotide
Description: FIG. 4 is a schematic representation showing the basis of a restriction enzyme protection assay to detect site-specific triplex formation within the supF gene. The formation of triplex DNA by psoralen-AG10 at its targeted site (bp 167–176 of the supF gene) overlaps with the Hinf I restriction site at bp 164–168 (indicated in the diagram by the box around the appropriate base pairs). Digestion of the unprotected 250 bp supF PCR fragment with Hinf I is expected to yield three fragments of sizes 150, 65, and 35 bp. In contrast, with the Hinf I site at bp 164–168 blocked by triplex formation at bp 167–176, fragments of sizes 150 and 100 bp are predicted.
The 250 bp supF target (70 nM) was incubated with a 100-fold molar excess of psoralen-AG10 as described for the binding assay. Irradiation of samples was performed at a dose of 1.8 J/cm^2. A radiometer was used to measure the lamp output (typical UVA irradiance of 5–7 mW/cm^2 at 320–400 nm). Following the binding and irradiation steps, samples were digested for 2 hours at 37° C. with Hinf I. Loading buffer was added and samples were heated 10 minutes at 55° C., and run for 1 hour on a 4.5% Nusieve gel in TAE buffer at 80 v (10 v/cm).
Site-specific formation of triplex DNA. […] This is diagrammed in FIG. 4. […] Analysis by agarose gel electrophoresis of Hinf I digestions of the 250 bp supF gene PCR fragment under various conditions was done. The supF fragment was incubated with or without psoralen-AG10 at a 100-fold molar excess, treated by 1.8 J/cm^2 of UVA irradiation, and then subjected to Hinf I digestion. Digestion of the unprotected 250 bp supF PCR fragment with Hinf I yielded three fragments of sizes 150, 65, and 35 in contrast with the uncut fragment of 250 bp. […] In the absence of psoralen-AG10, UVA light had no effect on Hinf I digestion.

[2] = ratio of oligo to vector 2:1, UVA 1.8 J/cm^2
[3] = ratio of oligo to vector 5:1, UVA 1.8 J/cm^2
[4] = ratio of oligo to vector 10:1, UVA 1.8 J/cm^2
[5] = ratio of oligo to vector 1000:1, no UVA
[6] = supF fragment 70 nM, UVA 1.8 J/cm^2

Substance | Fold higher targeted mutagenesis in SV40 than in bacteriophage lambda grown in E. coli ([1]; 6% to 7% versus 0.23%) | % mutants (supF gene) [1, 2] | % mutants (supF gene) [1, 3] | % mutants (supF gene) [1, 4] | % mutants (supF gene) ([1]; ratio of oligo to vector 1000:1, UVA 1.8 J/cm^2) | % mutants (supF gene) [1, 5] | Mutants per total colonies [1, 5] | Covalent bond to labeled duplex supF DNA (duplex supF DNA) | Protection from Hinf I digestion (250 bp supF PCR fragment; no UVA) | Protection from Hinf I digestion (250 bp supF PCR fragment; [6]) | supF mutagenesis relative to background ([1]; lower ratios of oligo to vector (below 1000:1), plus UVA) | % mutants (supF gene) ([1]; ratio of oligo to vector 1000:1, UVA 1.8 J/cm^2, listed as psoralen-GA10)
4′-hydroxymethyl-4,5′,8-trimethylpsoralen-^5′AGGAAGGGGG^3′ (DNA NAGGAAGGGGG; 4'-hydroxymethyl-4,5',8-trimethylpsoralen conjugated at 5' end, further chemistry not given here) [pso-AG10] | 30 fold | 2.5% | 4.3% | 6.4% | 7.3% | ≦0.06% | 0/1700 | formed a covalent bond to labeled duplex supF DNA following UVA irradiation | not sufficient to prevent Hinf I digestion | protection of the Hinf I site at bp 164–168 but not the one at bp 129–133 | – | –
pso-^5′GGGGGAAGGA^3′ (DNA NGGGGGAAGGA; psoralen conjugated at 5' end, further chemistry not given here) [pso-GA10, reference compound] | – | 0.07% | 0.13% | 0.06% | – | ≦0.07% | 0/1500 | did not | – | no protection from Hinf I cutting | no significant mutagenesis above the background frequency | 0.5% and 0.63%
